{
  "source": "patent US8871815B2",
  "about": "“Therapeutic compounds” (Signature Therapeutics, Inc., priority 2007, dated 2014)",
  "key": {"GABAA receptor": {"tested_on": "GABAA receptor", "assay": "Rat hippocampal brain slice electrophysiology assay", "type": "cell-based", "details": "in the presence of EC20 of muscimol (2 μM); CA1 population spike; read-out: EC50, potentiation of the action of agonists at the GABAA receptor", "procedure": "Rat hippocampal slices were prepared as follows: Male Wistar rats (100-125 g) were anesthetized with isoflurane and decapitated, the brains quickly removed, collected, blocked, and cut using a vibratome (OTS-4000, Electron Microscope Sciences) into 400 micron (μm) transverse sections. Slices were transferred to a warmed (33° C.), submerged tissue-recording chamber perfused at 2.5-3 ml/min with modified artificial cerebrospinal fluid (120 mM sodium chloride, 3.5 mM, potassium chloride, 2.5 mM calcium chloride, 1.3 mM magnesium chloride, 1.25 mM sodium phosphate, 26 mM sodium carbonate, 10 mM glucose, saturated with 95% oxygen, pH 7.4). […]\nElectrophysiology testing was accomplished as follows: A glass rod electrode (1-2 μM tip diameter) was filled with 3M sodium chloride (NaCl) and placed in the CA1 pyramidal cell layer of hippocampal slices. […] Population responses of the CA1 pyramidal cells were recorded with an Axoprobe-1A (Axon Instruments, Molecular Devices, Sunnyvale, Calif.). pCLAMP 8.2 (Axon Instruments) was used for acquiring the data, and Clampfit (Axon Instruments) was used for analysis. […] Peak to peak amplitude of the population response from each stimulus was measured as an indicator of cell excitability. […]\nData were acquired and analyzed using Clampfit and Excel (Microsoft), and reported as mean and individual values."}, "[1]": {"molecular_target": "T1, phosphodiesterase 2 (PDE2) (Homo sapiens, UniProt O00408)", "T1 construct": "Cerep, Inc", "T1 sequence (O00408 whole entry)": "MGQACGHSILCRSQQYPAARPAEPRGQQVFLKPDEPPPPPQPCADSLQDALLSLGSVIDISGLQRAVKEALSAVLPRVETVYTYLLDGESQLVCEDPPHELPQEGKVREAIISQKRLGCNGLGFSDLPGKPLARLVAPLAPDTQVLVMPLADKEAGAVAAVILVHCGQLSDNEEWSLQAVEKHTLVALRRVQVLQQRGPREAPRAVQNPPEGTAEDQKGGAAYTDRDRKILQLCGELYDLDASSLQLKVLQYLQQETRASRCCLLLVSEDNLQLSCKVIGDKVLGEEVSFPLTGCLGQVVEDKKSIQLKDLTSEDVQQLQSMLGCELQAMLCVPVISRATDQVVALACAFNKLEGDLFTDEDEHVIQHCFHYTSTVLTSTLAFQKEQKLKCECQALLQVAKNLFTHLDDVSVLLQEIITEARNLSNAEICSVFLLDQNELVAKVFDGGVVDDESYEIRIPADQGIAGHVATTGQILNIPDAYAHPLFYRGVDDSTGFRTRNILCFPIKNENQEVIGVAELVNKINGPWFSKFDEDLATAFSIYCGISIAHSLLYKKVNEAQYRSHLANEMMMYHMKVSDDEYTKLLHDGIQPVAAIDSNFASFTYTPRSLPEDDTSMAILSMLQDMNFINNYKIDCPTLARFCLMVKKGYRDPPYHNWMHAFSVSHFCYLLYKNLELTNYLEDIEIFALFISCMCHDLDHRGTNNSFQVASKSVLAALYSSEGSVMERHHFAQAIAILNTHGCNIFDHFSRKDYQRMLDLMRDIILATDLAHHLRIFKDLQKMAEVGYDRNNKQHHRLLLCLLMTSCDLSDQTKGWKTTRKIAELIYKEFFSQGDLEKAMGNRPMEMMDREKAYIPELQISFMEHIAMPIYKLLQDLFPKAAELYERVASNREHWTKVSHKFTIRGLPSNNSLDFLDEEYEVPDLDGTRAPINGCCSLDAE", "assay": "Cerep Diversity Profile: enzymes, PDE2", "type": "biochemical", "details": "tested at 10 μM; read-out: inhibition of control binding, PDE2"}, "[2]": {"assay": "Pharmacokinetic study in domestic pigs, IV infusion", "type": "in vivo, pig"}, "rats": {"tested_on": "rats", "assay": "Separate rat study, bolus IV, 1% in cremaphor, sleep time", "type": "in vivo", "details": "7 mg/kg bolus IV, rats"}, "Beagle dogs [3]": {"tested_on": "Beagle dogs", "assay": "Hemodynamic effects (blood pressure) in beagle dogs, bolus IV", "type": "in vivo, dog", "details": "4 min after administration", "experimental": "The study was a crossover design. […] The MTD was defined as the dose that reduced mean arterial blood pressure (MAP) by 50% or to less than 50 millimeters of mercury (mmHg or mm Hg). All animals received supplemental oxygen and, if needed, ventilatory support after 4 min of apnea.\nHemodynamic data, such as mean arterial pressure (MAP), were recorded at baseline, 1, 2, 4, 8, 15, 20 and 30 min. Compound 1 was administered at 5, 10, 15 and 30 mg/kg to 3, 6, 6 and 3 dogs respectively. […] Data were analyzed with a 2-way ANOVA followed by t-test with Bonferroni correction for multiple comparisons."}, "pigs [4]": {"tested_on": "pigs", "assay": "in vivo", "details": "384 μg per kg per min, pigs", "experimental": "Experiments were performed on commercial farm-bred swine of either sex (mean weight 33.6 kg). Anesthesia was induced with isoflurane. Intravascular access was obtained from an ear vein. Each pig was intubated and mechanically ventilated. Tissue oxygenation was monitored using continuous pulse oximetry placed on the tongue. Ventilation was monitored using an inspired/expired gas analyzer that measured oxygen, carbon dioxide, and potent inhalation agent concentrations. Ventilator settings were adjusted as needed to maintain steady state.\nECG was monitored throughout the study. Arterial blood pressure was monitored through the cannulated left femoral artery. MAP, systolic and diastolic arterial pressures and heart rate were collected every 5 seconds. An internal jugular vein was cannulated with a pulmonary artery catheter for thermodilution estimates of cardiac output and blood temperature. Body temperature was maintained at 37° C. Instrumentation for EEG monitoring was accomplished using an adhesive electrode array over the fronto-occipital regions (Aspect Medical. Norwood, Mass., USA).\nMetabolic and hemodynamic parameters for each group were compared at multiple time points using an unpaired two-tailed Student t test. To account for multiple comparisons and maintain the probability of a type I error below 0.05, P values less than 0.025 were considered significant."}, "pigs [5]": {"tested_on": "pigs", "assay": "Hemodynamic effects, arterial blood gas and serum chemistry in pigs, IV infusion", "type": "in vivo, pig", "parameters": "ABEc (acid base excess, corrected) / Glucose / Lactate: unit not given here", "details": "for ABEc (acid base excess, corrected) / Glucose / Lactate / Potassium / pC02 / pH / pO2: arterial blood, 0.384 mg/kg/min x 20 min IV", "experimental": "Anesthesia was induced with isoflurane. Intravascular access was obtained from an ear vein. Each pig was intubated and mechanically ventilated.\nECG was monitored throughout the study. […] Body temperature was maintained at 37° C.\nArterial blood gas samples from pigs infused with Compound 1 were taken and analyzed for blood gas and serum chemistry values; mean values are reported in Table 4."}, "ferrets": {"tested_on": "ferrets", "assay": "Pro-emetic activity in ferrets", "type": "in vivo, ferret", "details": "15 min IV infusion at 1 mg/kg/min, administered alone, 6 ferrets, 45 min", "text": "Immediately prior to dosing, food and water were removed."}, "Beagle dogs [6]": {"tested_on": "Beagle dogs", "details": "dogs"}},
  "note": "Like-named read-outs stand apart in the source and are kept apart here.",
  "data": [
    {"smiles": "CC[C@@H](C)c1cccc([C@H](C)CC)c1O", "note": "[Compound 1]", "values": [
      {"measurement": "EC50", "setting": "GABAA receptor", "value": 2500, "unit": "nM"},
      {"measurement": "inhibition at 10 µM", "setting": "[1]", "value": "> 20", "unit": "%"},
      {"measurement": "Clearance", "setting": "[2]; pig, IV infusion", "value": "exceeded estimated hepatic blood flow"},
      {"measurement": "metabolic pathway", "setting": "[2]; pigs", "value": "glucuronidation in the 1-position with the 4-position being subject to hydroxylation followed by glucuronide and sulfate conjugation"},
      {"measurement": "Sleep Time (duration of anesthesia)", "setting": "rats", "value": 23, "unit": "min"},
      {"measurement": "MAP % change from baseline", "setting": "Beagle dogs [3]; 10 mg/kg bolus IV", "value": "+11%"},
      {"measurement": "MAP % change from baseline", "setting": "Beagle dogs [3]; 15 mg/kg bolus IV", "value": "−25", "unit": "%"},
      {"measurement": "MAP % change from baseline", "setting": "Beagle dogs [3]; 30 mg/kg bolus IV", "value": "−41", "unit": "%"},
      {"measurement": "IV infusion time producing maximal suppression of BIS", "setting": "pigs [4]", "value": "14.7 ± 3.8", "unit": "min"},
      {"measurement": "metabolic alterations such as metabolic acidosis or increased lactate", "setting": "pigs [5]; IV infusion, pigs", "value": "did not produce any significant metabolic alterations"},
      {"measurement": "reduction of cardiac output compared to propofol", "setting": "pigs [5]; IV infusion, pigs", "value": "no significant difference"},
      {"measurement": "lowest HR measured", "setting": "pigs [5]; IV infusion, pigs (Compound 1 0.384, propofol 0.750 mg/kg/min)", "value": "129±6", "unit": "bpm"},
      {"measurement": "MAP (mean arterial pressure)", "setting": "pigs [5]; IV infusion, pigs (Compound 1 0.384, propofol 0.750 mg/kg/min), FIG. 1 in mm Hg", "value": "106±3"},
      {"measurement": "ABEc (acid base excess, corrected)", "setting": "pigs [5]; pigs, Min 0", "value": 5.6},
      {"measurement": "Glucose", "setting": "pigs [5]; pigs, Min 0", "value": 99.6},
      {"measurement": "Lactate", "setting": "pigs [5]; pigs, Min 0", "value": 1.43},
      {"measurement": "Potassium", "setting": "pigs [5]; pigs, Min 0", "value": 3.80},
      {"measurement": "pC02", "setting": "pigs [5]; pigs, Min 0", "value": 38.8},
      {"measurement": "pH", "setting": "pigs [5]; pigs, Min 0", "value": 7.4861},
      {"measurement": "pO2", "setting": "pigs [5]; pigs, Min 0", "value": 390},
      {"measurement": "ABEc (acid base excess, corrected)", "setting": "pigs [5]; pigs, Min 4", "value": 5.8},
      {"measurement": "Glucose", "setting": "pigs [5]; pigs, Min 4", "value": 102.9},
      {"measurement": "Lactate", "setting": "pigs [5]; pigs, Min 4", "value": 1.24},
      {"measurement": "Potassium", "setting": "pigs [5]; pigs, Min 4", "value": 3.71},
      {"measurement": "pC02", "setting": "pigs [5]; pigs, Min 4", "value": 37.2},
      {"measurement": "pH", "setting": "pigs [5]; pigs, Min 4", "value": 7.5027},
      {"measurement": "pO2", "setting": "pigs [5]; pigs, Min 4", "value": 410},
      {"measurement": "ABEc (acid base excess, corrected)", "setting": "pigs [5]; pigs, Min 20", "value": 5.7},
      {"measurement": "Glucose", "setting": "pigs [5]; pigs, Min 20", "value": 102.0},
      {"measurement": "Lactate", "setting": "pigs [5]; pigs, Min 20", "value": 1.20},
      {"measurement": "Potassium", "setting": "pigs [5]; pigs, Min 20", "value": 3.84},
      {"measurement": "pC02", "setting": "pigs [5]; pigs, Min 20", "value": 36.8},
      {"measurement": "pH", "setting": "pigs [5]; pigs, Min 20", "value": 7.5066},
      {"measurement": "pO2", "setting": "pigs [5]; pigs, Min 20", "value": 419},
      {"measurement": "ABEc (acid base excess, corrected)", "setting": "pigs [5]; pigs, Min 80", "value": 5.4},
      {"measurement": "Glucose", "setting": "pigs [5]; pigs, Min 80", "value": 99.7},
      {"measurement": "Lactate", "setting": "pigs [5]; pigs, Min 80", "value": 1.01},
      {"measurement": "Potassium", "setting": "pigs [5]; pigs, Min 80", "value": 4.00},
      {"measurement": "pC02", "setting": "pigs [5]; pigs, Min 80", "value": 37.5},
      {"measurement": "pH", "setting": "pigs [5]; pigs, Min 80", "value": 7.4943},
      {"measurement": "pO2", "setting": "pigs [5]; pigs, Min 80", "value": 402},
      {"measurement": "ABEc (acid base excess, corrected)", "setting": "pigs [5]; pigs, Min 140", "value": 4.1},
      {"measurement": "Glucose", "setting": "pigs [5]; pigs, Min 140", "value": 100.7},
      {"measurement": "Lactate", "setting": "pigs [5]; pigs, Min 140", "value": 0.95},
      {"measurement": "Potassium", "setting": "pigs [5]; pigs, Min 140", "value": 4.10},
      {"measurement": "pC02", "setting": "pigs [5]; pigs, Min 140", "value": 37.2},
      {"measurement": "pH", "setting": "pigs [5]; pigs, Min 140", "value": 7.4803},
      {"measurement": "pO2", "setting": "pigs [5]; pigs, Min 140", "value": 399},
      {"measurement": "ABEc (acid base excess, corrected)", "setting": "pigs [5]; pigs, Min 200", "value": 3.2},
      {"measurement": "Glucose", "setting": "pigs [5]; pigs, Min 200", "value": 102.4},
      {"measurement": "Lactate", "setting": "pigs [5]; pigs, Min 200", "value": 0.96},
      {"measurement": "Potassium", "setting": "pigs [5]; pigs, Min 200", "value": 4.06},
      {"measurement": "pC02", "setting": "pigs [5]; pigs, Min 200", "value": 37.6},
      {"measurement": "pH", "setting": "pigs [5]; pigs, Min 200", "value": 7.4641},
      {"measurement": "pO2", "setting": "pigs [5]; pigs, Min 200", "value": 356},
      {"measurement": "episodes of vomiting or retching", "setting": "ferrets", "value": "did not produce any episodes of vomiting or retching"},
      {"measurement": "duration of anesthesia (sleep time)", "setting": "Beagle dogs [6]; 5 mg/kg bolus IV", "value": 24, "unit": "min"},
      {"measurement": "duration of anesthesia (sleep time)", "setting": "Beagle dogs [6]; 10 mg/kg bolus IV", "value": 43, "unit": "min"},
      {"measurement": "duration of anesthesia (sleep time)", "setting": "Beagle dogs [6]; 15 mg/kg bolus IV", "value": 77, "unit": "min"},
      {"measurement": "duration of anesthesia (sleep time)", "setting": "Beagle dogs [6]; 30 mg/kg bolus IV", "value": 105, "unit": "min"}
    ]}
  ]
}
